{"source": "paper PMC11877631", "about": "“Novel Nucleus-Oriented Quenched Activity-Based Probes Link Cathepsin Nuclear Localization with Mitosis” (ACS Sensors, 2025)", "key": {"[1]": {"assay": "Quenching efficiency (fluorescent plate reader)", "assay_type": "physicochemical", "details": "lower fluorescence than average of nonquenched probes; slope ratio; 0.013–10 μM in acetate buffer pH 5.5; Ex./Em. 535/570 nm", "method": "Increasing concentrations (0.013–10 μM) of KRS (A1-F1), in acetate buffer (50 mM acetate, 5 mM MgCl2, 2 mM DTT, pH 5.5), were prepared in a 96-well plate. Fluorescence was measured and quantified using a BioRad plate reader, Ex./Em. 535/570 nm. Arbitrary fluorescent units were plotted versus probe concentration, and the ratio between the slope of each quenched probe and the average of the nonquenched probes were determined as quenching efficiency."}, "NIH-3T3 cells [2]": {"test_system": "NIH-3T3 cells", "assay": "Live cell confocal imaging", "assay_type": "cell-based, mouse", "details": "NIH-3T3, 2.5 μM, 6 h; for Nuclear cathepsin labeling (confocal Z-stack, costaining with Hoechst): 63× objective; for Probe staining intensity in live cells: fluorescence microscopy", "method": "(§1) NIH-3T3 or HeLa cells were seeded in an 8-well coverslip chamber (Lab-Tek) at a density of 100,000 cells per well and grown at 37 °C under 5% of CO2, 24 h later, cells were treated with 2.5 μM KRSs probes for 6 h. The medium was replaced with DMEM without phenol red, and Hoechst was added to a final concentration of 5 μg/mL. Live imaging of cells using a Zeiss LSM 710 Axio Observer.Z1 with a 63/24 Oil DIC M27 lens, in Cy3 and DAPI channels, was performed over 24 h; pictures were taken every 20–25 min. The Z-stack analysis was performed using 3–5 different depths focusing on the cell nucleus; each slice was 1–1.5 μm. Image processing was performed using NIS-Elements image acquisition software, quantifying the 63× images of several experiments and calculating the average fluorescence intensity. Statistics and standard deviation were calculated by using Microsoft Excel."}, "[3]": {"biological_target": "T1, intracellular cathepsin B in NIH-3T3 cells (Mus musculus, UniProt P10605)", "T1 construct": "KRS probes freely penetrated the cells and labeled endogenous cathepsins in a dose-dependent manner; endogenous in cells; host or cells: NIH-3T3", "T1 sequence (P10605 80-333 limits assumed)": "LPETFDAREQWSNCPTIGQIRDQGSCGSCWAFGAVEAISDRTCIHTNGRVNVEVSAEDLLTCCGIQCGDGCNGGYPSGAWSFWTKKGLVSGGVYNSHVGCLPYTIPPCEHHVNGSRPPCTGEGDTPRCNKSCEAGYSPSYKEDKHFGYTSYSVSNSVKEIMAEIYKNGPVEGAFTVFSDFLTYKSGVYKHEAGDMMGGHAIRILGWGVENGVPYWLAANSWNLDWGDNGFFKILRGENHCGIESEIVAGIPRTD", "assay_type": "cell-based", "details": "for Labeling of intracellular cathepsin B: live NIH-3T3, 6 h probe incubation, band intensity, in comparison to probes without the CPP", "method": "(§2) NIH-3T3 cells (2.5 × 10^5 cells/well) were seeded in a 12-well plate 1 day prior to treatment. Cells were pretreated with inhibitor GB111-NH2 or vehicle for 30 min followed by incubation with KRS probes at indicated concentrations predissolved in 0.1% DMSO and 0.9% ethanol in a culture medium. After 6 h of probe incubation cells were washed with PBS and lysed by addition of sample buffer as described above. Lysates were boiled for 5 min, centrifuged, and separated by 12.5% SDS-PAGE. Cathepsins labeled in cells were visualized by scanning the gel with a Typhoon laser scanner at Ex./Em. 535/570 nm."}, "[4]": {"biological_target": "T2, intracellular cathepsin L in NIH-3T3 cells (Mus musculus, UniProt P06797)", "T2 construct": "KRS probes freely penetrated the cells and labeled endogenous cathepsins in a dose-dependent manner; endogenous in cells; host or cells: NIH-3T3", "T2 sequence (P06797 114-334)": "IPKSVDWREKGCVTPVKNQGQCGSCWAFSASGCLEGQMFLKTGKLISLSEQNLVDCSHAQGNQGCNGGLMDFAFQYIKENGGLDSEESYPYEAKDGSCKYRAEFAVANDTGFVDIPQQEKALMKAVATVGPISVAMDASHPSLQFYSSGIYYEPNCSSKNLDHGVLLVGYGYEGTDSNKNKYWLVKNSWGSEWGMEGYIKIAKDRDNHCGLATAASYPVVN", "assay": "Probe labeling in intact cells, fluorescent SDS-PAGE", "assay_type": "cell-based", "details": "live NIH-3T3, 6 h probe incubation, band intensity; in comparison to probes without the CPP", "method": "as §2"}, "NIH-3T3 cells [5]": {"test_system": "NIH-3T3 cells", "assay_type": "cell-based, mouse", "method": "(§3) NIH-3T3 cells (2.5 × 10^5 cells/well) or HeLa cells (2.0 × 10^5 cells/well) were seeded in a 12-well plate 1 day before treatment. Cells were incubated with KRS probes at 2.5 μM predissolved in 0.1% DMSO and 0.9% ethanol in a culture medium for indicated durations. After the incubation, cells were washed with PBS and lysed by the addition of sample buffer. Samples were analyzed by fluorescent SDS-PAGE as described above."}, "HeLa cells [6]": {"test_system": "HeLa cells", "assay_type": "cell-based, human", "method": "as §3"}, "[7]": {"biological_target": "Recombinant human cathepsin B (Homo sapiens, UniProt P07858)", "assay": "Recombinant cathepsin labeling, fluorescent SDS-PAGE", "assay_type": "binding", "details": "pH 5.5, 37 °C, probe intensities compared with KRS-D1(qAc), GB111-NH2 given as pretreatment before KRS probes", "method": "(§4) Recombinant human cathepsins B (0.7 μg), L (0.6 μg), or S (0.7 μg) in reaction buffer (50 mM acetate, 5 mM MgCl2, 2 mM DTT, pH 5.5) was pretreated with the cathepsin inhibitor GB111-NH2 or vehicle for 30 min at room temp. Indicated concentrations of KRS probes were added to the samples for 30 min at 37 °C. The reaction was stopped by adding 4× sample buffer (40% glycerol, 0.2 M Tris/HCl 6.8, 20% β-mercaptoethanol, 12% SDS, and 0.4 mg/mL bromophenol blue). The samples were boiled and separated by a 12% SDS gel and scanned by a Typhoon laser scanner at Ex./Em. 535/570 nm for fluorescence."}, "[8]": {"biological_target": "Recombinant human cathepsin L (Homo sapiens, UniProt P07711)", "sequence (P07711 114-333)": "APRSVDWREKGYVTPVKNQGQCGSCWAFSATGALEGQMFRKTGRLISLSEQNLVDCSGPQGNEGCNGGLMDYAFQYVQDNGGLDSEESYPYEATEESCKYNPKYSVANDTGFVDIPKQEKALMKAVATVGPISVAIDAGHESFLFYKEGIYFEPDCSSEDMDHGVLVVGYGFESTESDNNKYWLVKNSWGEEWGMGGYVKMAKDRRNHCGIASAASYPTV", "assay": "Recombinant cathepsin labeling, fluorescent SDS-PAGE", "assay_type": "binding", "details": "pH 5.5, 37 °C, probe intensities compared with KRS-D1(qAc), GB111-NH2 given as pretreatment before KRS probes", "method": "as §4"}, "[9]": {"biological_target": "Recombinant human cathepsin S (Homo sapiens, UniProt P25774)", "sequence (P25774 115-331)": "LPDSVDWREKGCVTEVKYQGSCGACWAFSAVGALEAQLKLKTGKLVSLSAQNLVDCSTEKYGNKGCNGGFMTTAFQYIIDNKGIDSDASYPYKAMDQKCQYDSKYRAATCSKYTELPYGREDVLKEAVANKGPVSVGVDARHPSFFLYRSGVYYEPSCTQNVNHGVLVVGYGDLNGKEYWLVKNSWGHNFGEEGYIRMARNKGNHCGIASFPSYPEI", "assay": "Recombinant cathepsin labeling, fluorescent SDS-PAGE", "assay_type": "binding", "details": "pH 5.5, 37 °C, probe intensities compared with KRS-D1(qAc), GB111-NH2 given as pretreatment before KRS probes", "method": "as §4"}, "HeLa cells [10]": {"test_system": "HeLa cells", "assay": "Subcellular fractionation with fluorescent SDS-PAGE", "assay_type": "cell-based, human", "details": "2.5 μM, 6 h; for Active cathepsin in nuclear fraction: 20 μg protein per fraction", "method": "Cell fractionation was performed according to the manufacturer’s instructions using the Subcellular Protein Fractionation Kit for Cultured Cells (Pierce, Thermo Fisher Scientific Inc., Rockford, IL, USA, number 78840). Lysed cells were separated into subsequent cytosol, membrane, and nuclear fractions. Extracted proteins were subjected to SDS PAGE separation and fluorescence and Western blot analysis."}, "HeLa cells [11]": {"test_system": "HeLa cells", "assay": "Live cell confocal imaging and time-lapse movies", "assay_type": "cell-based, human", "method": "as §1"}, "HeLa cells [12]": {"test_system": "HeLa cells", "assay": "Image Streamer flow imaging, fixed cells", "assay_type": "cell-based, human", "details": "6 h, Draq5 stain", "method": "Live or methanol fixed cells were pretreated with KRS probes at 2.5 μM for 6 h predissolved in 0.1% DMSO and 0.9% ethanol in a culture medium. After the incubation, cells were washed with PBS centrifuged and dissolved in PBS in a final volume of 50 μL. The DNA markers: Hoechst (Thermo Fisher) at a final concentration of 1 μg/mL or Draq5 (Thermo Fisher) at a final concentration of 1.5 μM were added. The samples were analyzed using an Image StreamX Flow Imager system (Merk Millipore)."}}, "data": [{"compound": "Ac-Cys-Phe-Phe-Lys-(TMR-X)-AOMK-QSY7 [KRS-D1(qAc)]", "values": [{"measurement": "Fold quenching (quenching efficiency)", "setting": "[1]", "result": 61, "unit": "fold"}, {"measurement": "Nuclear cathepsin labeling (confocal Z-stack, costaining with Hoechst)", "setting": "NIH-3T3 cells [2]", "result": "did not detect cathepsins in the nucleus"}, {"measurement": "Probe staining intensity in live cells", "setting": "NIH-3T3 cells [2]", "result": "relatively weak staining"}]}, {"compound": "Ac-Cys-Phe-Phe-Lys-(TMR-X)-AOMK-Ac [KRS-C1(Ac)]", "values": [{"measurement": "Probe staining intensity in live cells", "setting": "NIH-3T3 cells [2]", "result": "relatively weak staining"}]}, {"compound": "NLS-Cys-Phe-Phe-Lys-(TMR-X)-AOMK-Ac [KRS-F1(NLS)]", "values": [{"measurement": "Probe staining intensity in live cells", "setting": "NIH-3T3 cells [2]", "result": "intense staining"}]}, {"compound": "TAT-Cys-Phe-Phe-Lys-(TMR-X)-AOMK-Ac [KRS-A1(TAT)]", "values": [{"measurement": "Binding relative to the other probes", "setting": "[3]; as seen in Figures 2 and 6a", "result": "strongest binding of all probes"}, {"measurement": "Labeling of intracellular cathepsin B", "setting": "[3]", "result": "enhanced labeling"}, {"measurement": "Labeling of intracellular cathepsin L", "setting": "[4]", "result": "enhanced labeling"}, {"measurement": "Permeability in time-course labeling", "setting": "NIH-3T3 cells [5]", "result": "enhanced and accelerated permeability"}, {"measurement": "Permeability in time-course labeling", "setting": "HeLa cells [6]", "result": "enhanced and accelerated permeability"}, {"measurement": "Probe staining intensity in live cells", "setting": "NIH-3T3 cells [2]", "result": "intense staining"}]}, {"compound": "NLS-Cys-Phe-Phe-Lys-(TMR-X)-AOMK-QSY7 [KRS-E1(qNLS)]", "values": [{"measurement": "Fold quenching (quenching efficiency)", "setting": "[1]", "result": 54, "unit": "fold"}, {"measurement": "Fluorescence labeling of recombinant cathepsin B", "setting": "[7]", "result": "slightly lower"}, {"measurement": "Fluorescence labeling of recombinant cathepsin L", "setting": "[8]", "result": "slightly lower"}, {"measurement": "Fluorescence labeling of recombinant cathepsin S", "setting": "[9]", "result": "slightly lower"}, {"measurement": "Cell permeability / cell penetration", "setting": "[3]", "result": "significantly greater cell penetration"}, {"measurement": "Labeling of intracellular cathepsin B", "setting": "[3]", "result": "enhanced labeling"}, {"measurement": "Labeling of intracellular cathepsin L", "setting": "[4]", "result": "enhanced labeling"}, {"measurement": "Nuclear cathepsin labeling (confocal Z-stack, costaining with Hoechst)", "setting": "NIH-3T3 cells [2]", "result": "label nuclear cathepsins"}, {"measurement": "Probe staining intensity in live cells", "setting": "NIH-3T3 cells [2]", "result": "intense staining"}, {"measurement": "Intensity in fractions relative to KRS-B1(qTAT)", "setting": "HeLa cells [10]", "result": "weaker intensity"}, {"measurement": "Active cathepsin in nuclear fraction", "setting": "HeLa cells [10]", "result": "clear presence of active nuclear cathepsin"}]}, {"compound": "TAT-Cys-Phe-Phe-Lys-(TMR-X)-AOMK-QSY7 [KRS-B1(qTAT)]", "values": [{"measurement": "Fold quenching (quenching efficiency)", "setting": "[1]", "result": 66, "unit": "fold"}, {"measurement": "Fluorescence labeling of recombinant cathepsin B", "setting": "[7]", "result": "slightly lower"}, {"measurement": "Fluorescence labeling of recombinant cathepsin L", "setting": "[8]", "result": "slightly lower"}, {"measurement": "Fluorescence labeling of recombinant cathepsin S", "setting": "[9]", "result": "slightly lower"}, {"measurement": "Cell permeability / cell penetration", "setting": "[3]", "result": "significantly greater cell penetration"}, {"measurement": "Labeling of intracellular cathepsin B", "setting": "[3]", "result": "enhanced labeling"}, {"measurement": "Labeling of intracellular cathepsin L", "setting": "[4]", "result": "enhanced labeling"}, {"measurement": "Permeability in time-course labeling", "setting": "NIH-3T3 cells [5]", "result": "enhanced and accelerated permeability"}, {"measurement": "Permeability in time-course labeling", "setting": "HeLa cells [6]", "result": "enhanced and accelerated permeability"}, {"measurement": "Nuclear cathepsin labeling (confocal Z-stack, costaining with Hoechst)", "setting": "NIH-3T3 cells [2]", "result": "label nuclear cathepsins"}, {"measurement": "Probe staining intensity in live cells", "setting": "NIH-3T3 cells [2]", "result": "intense staining"}, {"measurement": "Effect on entry of cells to mitosis", "setting": "HeLa cells [11]; HeLa, 2.5 μM, time-lapse over 22 h", "result": "inhibited the entry of cells to mitosis"}, {"measurement": "Nuclear cathepsin activity (TMR-X and Draq5 similarity)", "setting": "HeLa cells [12]", "result": "much higher degree"}, {"measurement": "Active cathepsin in nuclear fraction", "setting": "HeLa cells [10]", "result": "clear presence of active nuclear cathepsin"}]}, {"compound": "Cc1cccc(C)c1C(=O)OCC(=O)[C@H](CCCCN)NC(=O)[C@H](Cc1ccccc1)NC(=O)OCc1ccccc1", "note": "[GB111-NH2, reference compound]", "values": [{"measurement": "Fluorescence labeling of recombinant cathepsin B", "setting": "[7]", "result": "dramatically reduced"}, {"measurement": "Fluorescence labeling of recombinant cathepsin L", "setting": "[8]", "result": "dramatically reduced"}, {"measurement": "Fluorescence labeling of recombinant cathepsin S", "setting": "[9]", "result": "dramatically reduced"}, {"measurement": "Fluorescent signal of KRS probes after inhibitor pretreatment", "setting": "HeLa cells [11]; live HeLa, 2.5 μM GB111-NH2 pretreatment, then KRS-B1(qTAT) or KRS-E1(qNLS) 6 h", "result": "strongly reduced"}]}]}
